Molecules are shown by their SMILES. Structures can show the parent of a compound that is named as a salt.

These results are taken from patent US20230257354A1, “NOVEL HETEROCYCLIC COMPOUNDS” (Hoffmann-La Roche Inc., priority 2020, published 2023).

The subject of this experiment is Acinetobacter baumannii ATCC17978. The experiment can be described thus: Antimicrobial susceptibility testing, 90% growth inhibitory concentration (IC90) determination, ATCC17978. The format is cell-based. The settings on record: Iso-Sensitest broth, OD 600 nm over 16 h, 35±2° C., read-out: ATCC 17978 IC90. The method, then: Antimicrobial Susceptibility Testing: 90% Growth Inhibitory Concentration (IC90) Determination The in vitro antimicrobial activity of the compounds was determined according to the following procedure: The assay used a 10-points Iso-Sensitest broth medium to measure quantitatively the in vitro activity of the compounds against Acinetobacter baumannii ATCC17978 or ATCC17961. Stock compounds in DMSO were serially twofold diluted (e.g. range from 50 to 0.097 μM final concentration) in 384 wells microtiter plates and inoculated with 49 μl the bacterial suspension in Iso-Sensitest medium to have a final cell concentration of ˜5×10^(5) CFU/ml in a final volume/well of 50 ul/well. Microtiter plates were incubated at 35±2° C. Bacterial cell growth was determined with the measurement of optical density at X=600 nm each 20 minutes over a time course of 16 h. Growth inhibition was calculated during the logarithmic growth of the bacterial cells with determination of the concentration inhibiting 50% (IC50) and 90% (IC90) of the growth. Table 1 provides the 90% growth inhibitory concentrations (IC90) in micromoles per liter of the compounds of present invention obtained against the strain Acinetobacter baumannii ATCC17978.

`CCc1cc(NC(=O)c2ncc(-c3ccc(OC(F)F)c(F)c3F)n2C)ccc1C(=O)NCCCNC(=O)C1CCN(CC2CCNC2)CC1` (centres unmarked) [Example C2, N-[3-[[4-[[5-[4-(difluoromethoxy)-2,3-difluoro-phenyl]-1-methyl-imidazole-2-carbonyl]amino]-2-ethyl-benzoyl]amino]propyl]-1-(pyrrolidin-3-ylmethyl)piperidine-4-carboxamide;formic acid]: the IC90 is 370 nM. Take `CCc1cc(NC(=O)c2ncc(-c3ccc(OC(F)F)c(F)c3F)n2C)ccc1C(=O)NCCCNC(=O)C1CCNCC1` [Example B12, N-[3-[[4-[[5-[4-(difluoromethoxy)-2,3-difluoro-phenyl]-1-methyl-imidazole-2-carbonyl]amino]-2-ethyl-benzoyl]amino]propyl]piperidine-4-carboxamide;formic acid]: the IC90 was found to be 760 nM.

As to `COc1ccc(-c2cnc(C(=O)Nc3ccc(C(=O)NCCNC(=O)[C@H]4C[C@@](C)(O)CN4)c(C)c3)n2C)c(F)c1F` [Example B26, 5-(2,3-difluoro-4-methoxy-phenyl)-N-[4-[2-[[(2R,4R)-4-hydroxy-4-methyl-pyrrolidine-2-carbonyl]amino]ethylcarbamoyl]-3-methyl-phenyl]-1-methyl-imidazole-2-carboxamide;formic acid], the IC90 was determined as 1200 nM. As for `CCc1cc(NC(=O)c2ncc(-c3ccc(OC)cc3Cl)n2C)ccc1C(=O)NCCOCCN` [Example A16, N-[4-[2-(2-aminoethoxy)ethylcarbamoyl]-3-ethyl-phenyl]-5-(2-chloro-4-methoxy-phenyl)-1-methyl-imidazole-2-carboxamide;hydrochloride], the IC90 was 1500 nM. With `COc1ccc(-c2cnc(C(=O)Nc3ccc(C(=O)NCCNC(=O)N[C@@H]4CNC[C@H]4O)c(C)c3)n2C)c(F)c1F` [Example B28, 5-(2,3-difluoro-4-methoxy-phenyl)-N-[4-[2-[[(3R,4R)-4-hydroxypyrrolidin-3-yl]carbamoylamino]ethylcarbamoyl]-3-methyl-phenyl]-1-methyl-imidazole-2-carboxamide;formic acid] the figure was 510 nM; with `Cn1c(-c2ccc(OCC#N)c(F)c2F)cnc1C(=O)Nc1ccc(C(=O)NCCNC(=O)[C@H]2CCNC[C@H]2O)c(Cl)c1` [Example B33, (3S,4S)-N-[2-[[2-chloro-4-[[5-[4-(cyanomethoxy)-2,3-difluoro-phenyl]-1-methyl-imidazole-2-carbonyl]amino]benzoyl]amino]ethyl]-3-hydroxy-piperidine-4-carboxamide;formic acid], 1100 nM; with `CCc1cc(NC(=O)c2ncc(-c3ccc(OC)c(F)c3F)n2C)ccc1C(=O)N[C@H]1C[C@@H](C(=O)NCCN)C1` [Example B22, N-[4-[[3-(2-aminoethylcarbamoyl)cyclobutyl]carbamoyl]-3-ethyl-phenyl]-5-(2,3-difluoro-4-methoxy-phenyl)-1-methyl-imidazole-2-carboxamide;2,2,2-trifluoroacetic acid], 320 nM.

For the molecule `COc1ccc(-c2cnc(C(=O)Nc3ccc(C(=O)NCCNC(=O)N[C@H]4CNC[C@@H]4O)c(C)c3)n2C)c(F)c1F` [Example B29, 5-(2,3-difluoro-4-methoxy-phenyl)-N-[4-[2-[[(3S,4S)-4-hydroxypyrrolidin-3-yl]carbamoylamino]ethylcarbamoyl]-3-methyl-phenyl]-1-methyl-imidazole-2-carboxamide;formic acid], the IC90 came out at 610 nM. Turning to `COc1ccc(-c2cnc(C(=O)Nc3ccc(C(=O)NCC4CCNCC4)c(Cl)c3)n2C)c(F)c1F` [Example A5, N-[3-chloro-4-(4-piperidylmethylcarbamoyl)phenyl]-5-(2,3-difluoro-4-methoxy-phenyl)-1-methyl-imidazole-2-carboxamide;formic acid], the IC90 was 550 nM. With `CC[C@]1(O)CN[C@@H](C(=O)NCCNC(=O)c2ccc(NC(=O)c3ncc(-c4ccc(OCC#N)c(F)c4F)n3C)cc2C)C1` [Example B25, 5-[4-(cyanomethoxy)-2,3-difluoro-phenyl]-N-[4-[2-[[(2R,4R)-4-ethyl-4-hydroxy-pyrrolidine-2-carbonyl]amino]ethylcarbamoyl]-3-methyl-phenyl]-1-methyl-imidazole-2-carboxamide;formic acid] the figure was 870 nM; with `CNC(=O)c1ccc(NC(=O)c2ncc(-c3ccc(OC)cc3)n2C)cc1C` [Example D1, 5-(4-Methoxyphenyl)-1-methyl-N-[3-methyl-4-(methylcarbamoyl)phenyl]imidazole-2-carboxamide], 3200 nM.

As for `Cc1cc(NC(=O)c2ncc(-c3ccc(OCC#N)c(F)c3F)n2C)ccc1C(=O)NCCNC(=O)N[C@@H]1CNC[C@H]1O` [Example B30, 5-[4-(cyanomethoxy)-2,3-difluoro-phenyl]-N-[4-[2-[[(3R,4R)-4-hydroxypyrrolidin-3-yl]carbamoylamino]ethylcarbamoyl]-3-methyl-phenyl]-1-methyl-imidazole-2-carboxamide;formic acid], the IC90 came to 650 nM.

Consider `Cn1c(-c2ccc(OCC#N)c(F)c2F)cnc1C(=O)Nc1ccc(C(=O)NCCNC(=O)C2(O)CCNCC2)c(Cl)c1` [Example B16, N-[2-[[2-chloro-4-[[5-[4-(cyanomethoxy)-2,3-difluoro-phenyl]-1-methyl-imidazole-2-carbonyl]amino]benzoyl]amino]ethyl]-4-hydroxy-piperidine-4-carboxamide;2,2,2-trifluoroacetic acid], for which the IC90 was determined as 350 nM. Take `COc1ccc(-c2cnc(C(=O)Nc3ccc(C(=O)N[C@H]4C[C@@H](NC(=O)C5C[C@@H](O)CN5)C4)c(Cl)c3)n2C)c(F)c1F` (stereo in doubt) [Example B38, N-[3-chloro-4-[[3-[[(4R)-4-hydroxypyrrolidine-2-carbonyl]amino]cyclobutyl]carbamoyl]phenyl]-5-(2,3-difluoro-4-methoxy-phenyl)-1-methyl-imidazole-2-carboxamide;formic acid]: the IC90 came out at 55 nM. Consider `COc1ccc(-c2cnc(C(=O)Nc3ccc(C(=O)NC4CCN(C(=O)C5CCNCC5)C4)c(Cl)c3)n2C)c(F)c1F` (centres unmarked) [Example B1, N-[3-Chloro-4-[[1-(piperidine-4-carbonyl)pyrrolidin-3-yl]carbamoyl]phenyl]-5-(2,3-difluoro-4-methoxy-phenyl)-1-methyl-imidazole-2-carboxamide; formic acid], for which the IC90 was found to be 110 nM. With `Cn1c(-c2ccc(OC(F)F)c(F)c2F)cnc1C(=O)Nc1ccc(C(=O)NCCCN)c(Cl)c1` [Example A19, N-[4-(3-Aminopropylcarbamoyl)-3-chloro-phenyl]-5-[4-(difluoromethoxy)-2,3-difluoro-phenyl]-1-methyl-imidazole-2-carboxamide] the figure was 1400 nM; with `COc1ccc(-c2cnc(C(=O)Nc3ccc(C(=O)NCCN4CCC(O)C4)c(Cl)c3)n2C)c(F)c1F` (centres unmarked) [Example A28, N-[3-chloro-4-[2-(3-hydroxypyrrolidin-1-yl)ethylcarbamoyl]phenyl]-5-(2,3-difluoro-4-methoxy-phenyl)-1-methyl-imidazole-2-carboxamide], 1200 nM; with `CCc1cc(NC(=O)c2ncc(-c3ccc(OCC(N)=O)c(F)c3F)n2C)ccc1C(=O)NCCOCCN` [Example A21, N-[4-[2-(2-aminoethoxy)ethylcarbamoyl]-3-ethyl-phenyl]-5-[4-(2-amino-2-oxo-ethoxy)-2,3-difluoro-phenyl]-1-methyl-imidazole-2-carboxamide;hydrochloride], 4700 nM. As to `COc1ccc(-c2cnc(C(=O)Nc3ccc(C(=O)NC4CCN(C(=O)[C@@H]5CCNC5)C4)c(Cl)c3)n2C)c(F)c1F` (stereo partly drawn) [Example B2, N-[3-chloro-4-[[1-[(3R)-pyrrolidine-3-carbonyl]pyrrolidin-3-yl]carbamoyl]phenyl]-5-(2,3-difluoro-4-methoxy-phenyl)-1-methyl-imidazole-2-carboxamide;formic acid], the IC90 came to 130 nM. With `COc1ccc(-c2cnc(C(=O)Nc3ccc(C(=O)NC4CN(C(=O)CN)C4)c(Cl)c3)n2C)c(F)c1F` [Example B17, N-[4-[[1-(2-aminoacetyl)azetidin-3-yl]carbamoyl]-3-chloro-phenyl]-5-(2,3-difluoro-4-methoxy-phenyl)-1-methyl-imidazole-2-carboxamide;formic acid] the figure was 84 nM; with `COc1ccc(-c2cnc(C(=O)Nc3ccc(C(=O)NC4CCN(C(=O)[C@@H]5C[C@@H](O)CN5)C4)c(Cl)c3)n2C)c(F)c1F` (stereo partly drawn) [Example B3, N-[3-chloro-4-[[1-[(2S,4R)-4-hydroxypyrrolidine-2-carbonyl]pyrrolidin-3-yl]carbamoyl]phenyl]-5-(2,3-difluoro-4-methoxy-phenyl)-1-methyl-imidazole-2-carboxamide;formic acid], 280 nM. With `CCc1cc(NC(=O)c2ncc(-c3ccc(OC)c(F)c3F)n2C)ccc1C(=O)NCCCOCCN(C)C` [Example A30, 5-(2,3-difluoro-4-methoxy-phenyl)-N-[4-[3-[2-(dimethylamino)ethoxy]propylcarbamoyl]-3-ethyl-phenyl]-1-methyl-imidazole-2-carboxamide] the figure was 250 nM. With `Cn1c(-c2ccc(OC(F)F)c(F)c2F)cnc1C(=O)Nc1ccc(C(=O)NCCCNC(=O)CCN)c(Cl)c1` [Example B11, N-[4-[3-(3-aminopropanoylamino)propylcarbamoyl]-3-chloro-phenyl]-5-[4-(difluoromethoxy)-2,3-difluoro-phenyl]-1-methyl-imidazole-2-carboxamide;2,2,2-trifluoroacetic acid] the figure was 230 nM.

For orientation: IC90 means the point of the concentration-response curve where the effect stands at 90%.
